# In patent publication US12410220B2, “Modulation of mammalian cell lineage by synthetic immodulins” (priority 2021, dated 2025):
# Peptide text beside a SMILES is read from it.
# Tests used:
# [1] = Experiment 4D binding to FITC-labelled heparin; conditions: biotinylated peptide 1 ug/well; 1 ug FITC-labelled heparin, 90 minutes
# Description: (§1) Streptavidin-coated 96-well plates (G-Biosciences, St. Louis, MO) were pre-treated with biotinylated peptides [see Example 1 for key] at 1 ug/well, at room temperature for 60 minutes. The plate was washed with PBS buffer and then 1 ug FITC-labelled heparin or hyaluronic acid in 100 uL PBS buffer was added per well (all tests in quadruplicate). Incubation proceeded for 90 minutes at room temperature, followed by two PBS washes. The plate was read in a standard laboratory fluorometer (488/525 nm exitation/[…]) and the counts normalized for immX3 peptide binding=100. Values statistically above background are shown in bold font. **p<0.05 versus immX3AVD.
# THP1-Dual monocytes [2] = test: THP1-Dual monocyte differentiation assay, cytokine protocol; type: cell-based, human; conditions: peptide 330 nM, 24 hours, relative to immX3AVD = 100
# Description: (§2) Mammalian cell differentiation assays using THP1-Dual monocytes reporter cell line (Invivogen Inc, San Diego, CA) seeded at 2×10e5 cells per well in 96-well plates and cultured at 37 degrees C. in RPMI-1640 growth medium plus 10% fetal bovine serum and 1% penicillin/streptomycin, then treated for 24 hours with either 100 ng/ml Phorbol 12-myristate 13-acetate (PMA protocol; Cayman Chemical Company, Ann Arbor, MI) or a mixture of IL-4 (100 ng/ml), GM-CSF (100 ng/ml), TNF-alpha (20 ng/ml) and ionomycin (200 ng/ml) (Cytokine protocol; Peprotech, Rocky Hill, NJ). Peptide (330 nM) was then added, and incubation continued for an additional 24 hours. Culture supernatants were then assayed for CCL22. Plates with adherent cells were washed with PBS and assayed for immunoreactivity of surface markers such as CD169, Clec9a, Clec12a or MHCII using fuorescent tag- or biotin-labeled anti-human antibodies purchased from Miltenyi Biotec (Auburn, CA) and a relevant secondary detection reagent, or by fluorescence counts.
# [3] = Experiment 4D binding to FITC-labelled hyaluronic acid; conditions: biotinylated peptide 1 ug/well; 1 ug FITC-labelled hyaluronic acid, 90 minutes
# Description: as §1
# [4] = Ferric iron-binding assay of biotinylated immodulin peptides; conditions: N-terminally biotinylated peptide, 400 ng per well, 60 min room temperature; immX3AVD = 100
# Source text: N-terminally biotinylated versions of the peptides listed below were used in ferric iron-binding assays involving either an Alexa488-labeled streptavidin protocol (Binding Assay 1) or FITC-NTA assay (Binding Assay 2). Fluorescence was standardized to binding with immX3AVD control peptide (100) and the average of multiple experiments using both protocols is shown. P values are shown relative to the control immX3AVD peptide (**<0.05). D-amino acid residues are underlined in the sequences and the extension tripeptide of immX peptides is shown in bold font. Binding Assay 1 was done as follows: NTA coated 96-well plates (G-Biosciences, St. Louis, MO) were charged with ferric chloride and contacted with equimolar biotinylated peptide: streptavidin-A488 complex (400 ng peptide per well) for 60 min at room temperature, washed with phosphate-buffered saline (PBS) and read at 525 nm in a fluorescence counter. Binding Assay 2 was done as follows: Streptavidin coated 96-well plates (G-Biosciences, St. Louis, MO) were contacted with 400 ng peptide per well in PBS buffer for 60 minutes at room temperature, washed in PBS, then contacted with FITC-NTA (TRC, Toronto, Canada) complexed with equimolar ferric chloride (10× molar equivalent per well) for 60 min at room temperature, washed with PBS and read at 525 nm in a fluorescence counter.
# THP1-Dual monocytes [5] = test: THP1-Dual monocyte differentiation assay, PMA protocol; type: cell-based, human; conditions: peptide 330 nM, 24 hours, relative to immX3AVD = 100
# Description: as §2
smiles,measurement,setting,value
CC(C)[C@H](NC(=O)[C@H](C)NC(=O)[C@H](Cc1c[nH]c2ccccc12)NC(=O)[C@H](CS)NC(=O)[C@H](Cc1ccccc1)NC(=O)CNC(=O)[C@H](CCCNC(=N)N)NC(=O)[C@H](CCCCN)NC(=O)[C@H](CCCNC(=N)N)NC(=O)CNC(=O)[C@H](CCCCN)NC(=O)[C@H](CO)NC(=O)[C@@H]1CCCN1C(=O)[C@H](CCCNC(=N)N)NC(=O)[C@H](CS)NC(=O)[C@H](CCC(N)=O)NC(=O)[C@H](CCCCN)NC(=O)[C@H](CCCCN)NC(=O)[C@H](CCCCN)NC(=O)[C@H](Cc1ccc(O)cc1)NC(=O)[C@H](Cc1ccccc1)NC(=O)CNC(=O)[C@H](CCCCN)NC(=O)[C@@H](N)CCCCN)C(=O)N[C@@H](CC(=O)O)C(=O)O [immX3AVD] (H-KKGFYKKKQCRPSKGRKRGFCWAVD-OH; N-terminus and C-terminus assumed),"Heparin binding, counts normalized for immX3 peptide binding=100",[1],100.0 ± 4.7
same,Clec12A(AU),THP1-Dual monocytes [2],100 AU
same,"Hyaluronate binding, counts normalized for immX3 peptide binding=100",[3],100.0 ± 22.8
same,"Ferric iron binding, fluorescence standardized to immX3AVD control peptide (100), Avg ± SD",[4],100.0
same,CD169+ (AU),THP1-Dual monocytes [5],100 AU
